In ChEMBL document CHEMBL2177034, “Inhibition of hypoxia inducible factor-2 transcription: isolation of active modulators from marine sponges” (J Nat Prod, 2012):
The source made the active and inactive calls. The rule behind the calls is not given here.

Assays:
[1] = Downregulation of HIF1alpha mRNA expression in human SK-RC-28 cells at 79 uM after 48 hrs by RT-PCR analysis; assay type: functional, cell-based
[2] = target: T1, Endothelial PAS domain-containing protein 1 (Homo sapiens, UniProt Q99814); assay: Inhibition of HIF2alpha in human 786-0 cells assessed as reduction in CCND1 mRNA expression at 79 uM after 48 hrs by RT-PCR analysis; assay type: cell-based
T1 sequence (Q99814 whole entry, the tested form may be a part): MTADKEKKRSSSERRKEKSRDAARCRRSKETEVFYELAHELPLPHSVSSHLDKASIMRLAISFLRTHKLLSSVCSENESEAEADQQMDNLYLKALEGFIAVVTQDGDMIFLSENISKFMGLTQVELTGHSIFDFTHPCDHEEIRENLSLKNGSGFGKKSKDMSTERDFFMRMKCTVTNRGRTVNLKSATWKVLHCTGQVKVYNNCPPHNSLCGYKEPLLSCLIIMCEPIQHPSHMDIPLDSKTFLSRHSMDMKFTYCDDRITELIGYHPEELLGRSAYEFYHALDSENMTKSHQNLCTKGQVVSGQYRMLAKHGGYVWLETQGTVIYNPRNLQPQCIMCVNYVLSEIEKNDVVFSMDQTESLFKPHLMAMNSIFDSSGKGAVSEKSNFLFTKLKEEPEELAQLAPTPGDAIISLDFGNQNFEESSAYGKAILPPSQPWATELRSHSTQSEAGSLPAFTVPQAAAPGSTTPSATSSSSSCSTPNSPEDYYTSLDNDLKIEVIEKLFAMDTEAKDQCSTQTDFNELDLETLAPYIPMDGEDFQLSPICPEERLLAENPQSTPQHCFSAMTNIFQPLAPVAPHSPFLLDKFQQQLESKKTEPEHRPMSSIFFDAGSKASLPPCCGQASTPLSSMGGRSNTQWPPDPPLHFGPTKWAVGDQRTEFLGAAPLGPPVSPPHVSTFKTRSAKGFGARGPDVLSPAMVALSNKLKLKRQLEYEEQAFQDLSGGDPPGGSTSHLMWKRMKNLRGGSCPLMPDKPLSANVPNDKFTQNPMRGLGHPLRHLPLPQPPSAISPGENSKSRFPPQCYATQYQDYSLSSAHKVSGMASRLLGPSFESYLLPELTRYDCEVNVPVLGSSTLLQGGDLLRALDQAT

[3] = target: Hypoxia-inducible factor 1-alpha (Homo sapiens) (UniProt Q16665); assay: Inhibition of HIF1alpha in human SK-RC-28 cells assessed as reduction in VEGFA expression at 79 uM after 48 hrs by RT-PCR analysis; assay type: cell-based
Chain of Hypoxia-inducible factor 1-alpha (Homo sapiens) (Q16665 whole entry, looked up, the tested form may be a part): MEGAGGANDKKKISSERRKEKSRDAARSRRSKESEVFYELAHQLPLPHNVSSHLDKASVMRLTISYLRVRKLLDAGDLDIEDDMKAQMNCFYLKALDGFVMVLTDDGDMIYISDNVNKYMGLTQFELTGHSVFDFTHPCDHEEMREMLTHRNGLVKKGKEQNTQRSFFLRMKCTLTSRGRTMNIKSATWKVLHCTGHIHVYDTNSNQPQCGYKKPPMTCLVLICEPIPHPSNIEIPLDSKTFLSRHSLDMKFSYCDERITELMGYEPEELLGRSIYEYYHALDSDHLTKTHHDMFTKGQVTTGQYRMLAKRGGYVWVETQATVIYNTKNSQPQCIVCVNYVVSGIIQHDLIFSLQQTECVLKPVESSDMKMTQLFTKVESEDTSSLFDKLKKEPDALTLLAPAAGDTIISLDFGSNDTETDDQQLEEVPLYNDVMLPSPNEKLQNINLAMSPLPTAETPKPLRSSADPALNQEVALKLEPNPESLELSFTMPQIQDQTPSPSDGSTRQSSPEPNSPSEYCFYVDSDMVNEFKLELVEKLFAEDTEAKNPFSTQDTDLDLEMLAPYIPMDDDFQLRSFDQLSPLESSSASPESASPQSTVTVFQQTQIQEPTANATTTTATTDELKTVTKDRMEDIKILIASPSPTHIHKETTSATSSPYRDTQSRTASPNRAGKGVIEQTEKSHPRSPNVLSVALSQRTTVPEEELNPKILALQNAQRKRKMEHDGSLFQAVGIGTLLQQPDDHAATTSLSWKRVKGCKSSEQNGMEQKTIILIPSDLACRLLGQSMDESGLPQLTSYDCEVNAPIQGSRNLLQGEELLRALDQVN

[4] = target: T1, Endothelial PAS domain-containing protein 1; assay: Inhibition of HIF2alpha in human RCC4 cells coexpressing HIF1alpha assessed as reduction in GLUT1 mRNA expression at 79 uM after 48 hrs by RT-PCR analysis; assay type: cell-based
[5] = Cytotoxicity against human RCC4 cells expressing HIF2alpha and HIF1alpha after 2 days by XTT assay; assay type: functional, cell-based; settings: RCC4, 48 h
[6] = target: T1, Endothelial PAS domain-containing protein 1; assay: Inhibition of HIF2alpha in human 786-0 cells assessed as reduction in TGFalpha mRNA expression at 79 uM after 48 hrs by RT-PCR analysis; assay type: cell-based
786-0 [7] = assay: Induction of total protein expression in serum deprived human 786-0 cells at 79 uM after 48 hrs relative to control; assay type: cell-based; settings: 786-0, 48 h
[8] = target: T1, Endothelial PAS domain-containing protein 1; assay: Inhibition of HIF2alpha in human 786-0 cells assessed as reduction in VEGFA mRNA expression at 79 uM after 48 hrs by RT-PCR analysis; assay type: cell-based
[9] = Downregulation of HIF2alpha mRNA expression in human SK-RC-28 cells at 79 uM after 48 hrs by RT-PCR analysis; assay type: functional, cell-based
[10] = target: Hypoxia-inducible factor 1-alpha (Homo sapiens) (UniProt Q16665); assay: Inhibition of HIF1alpha in human SK-RC-28 cells assessed as reduction in carbonic anhydrase expression at 79 uM after 48 hrs by RT-PCR analysis; assay type: cell-based
[11] = target: T1, Endothelial PAS domain-containing protein 1; assay: Inhibition of HIF2alpha in human RCC4 cells coexpressing HIF1alpha assessed as reduction in CCND1 mRNA expression at 79 uM after 48 hrs by RT-PCR analysis; assay type: cell-based
[12] = target: T1, Endothelial PAS domain-containing protein 1; assay: Inhibition of HIF2alpha in human 786-0 cells assessed as reduction in GLUT1 mRNA expression at 79 uM after 48 hrs by RT-PCR analysis; assay type: cell-based
786-0 [13] = assay: Downregulation of HIF1alpha mRNA expression in human 786-0 cells at 79 uM after 48 hrs by RT-PCR analysis; assay type: functional, cell-based
[14] = Downregulation of GLUT1 mRNA expression in human SK-RC-28 cells at 79 uM after 48 hrs by RT-PCR analysis; assay type: functional, cell-based
[15] = target: Hypoxia-inducible factor 1-alpha (Homo sapiens) (UniProt Q16665); assay: Inhibition of HIF1alpha in human RCC4 cells coexpressing HIF2alpha assessed as decrease in carbonic anhydrase 9 mRNA expression at 79 uM after 48 hrs by RT-PCR analysis; assay type: cell-based
786-0 [16] = assay: Upregulation of carbonic anhydrase 9 mRNA expression in human 786-0 cells at 79 uM after 48 hrs by RT-PCR analysis; assay type: ADME, cell-based; settings: 786-0, 48 h
[17] = Downregulation of CCND1 mRNA expression in human SK-RC-28 cells at 79 uM after 48 hrs by RT-PCR analysis; assay type: functional, cell-based
[18] = target: T1, Endothelial PAS domain-containing protein 1; assay: Inhibition of HIF2alpha in human RCC4 cells coexpressing HIF1alpha assessed as reduction in TGFalpha mRNA expression at 79 uM after 48 hrs by RT-PCR analysis; assay type: cell-based
[19] = Cytotoxicity against human SK-RC-28 cells expressing HIF1alpha after 2 days by XTT assay; assay type: functional, cell-based; settings: 48 h
[20] = Downregulation of HIF2alpha mRNA expression in human RCC4 cells at 79 uM after 48 hrs by RT-PCR analysis; assay type: functional, cell-based
[21] = Downregulation of TGFalpha mRNA expression in human SK-RC-28 cells at 79 uM after 48 hrs by RT-PCR analysis; assay type: functional, cell-based
786-0 [22] = assay: Cytotoxicity against human 786-0 cells expressing HIF2alpha after 2 days by XTT assay; assay type: functional, cell-based; settings: 786-0, 48 h
786-0 [23] = assay: Downregulation of HIF2alpha mRNA expression in human 786-0 cells at 79 uM after 48 hrs by RT-PCR analysis; assay type: functional, cell-based
[24] = Downregulation of HIF1alpha mRNA expression in human RCC4 cells at 79 uM after 48 hrs by RT-PCR analysis; assay type: functional, cell-based
[25] = target: T1, Endothelial PAS domain-containing protein 1; assay: Inhibition of HIF2alpha in human 786-0 cells expressing truncated HIF1alpha assessed as reduction in luciferase activity after 24 hrs by reporter gene assay; assay type: cell-based
786-0 [26] = assay: Induction of HIF-mediated VEGFA expression in serum deprived human 786-0 cells at 79 uM after 48 hrs relative to control; assay type: cell-based
[27] = target: T2, Hypoxia inducible factors; HIF-1-alpha, HIF-2-alpha (Homo sapiens) (UniProt Q16665+Q99814); assay: Inhibition of HIF1alpha/2alpha in human RCC4 cells assessed as reduction in VEGFA mRNA expression at 79 uM after 48 hrs by RT-PCR analysis; assay type: cell-based
[28] = Downregulation of HIF2alpha mRNA expression in human RCC4 cells at 21 uM after 48 hrs by RT-PCR analysis; assay type: functional, cell-based
[29] = target: Hypoxia-inducible factor 1-alpha (Homo sapiens) (UniProt Q16665); assay: Inhibition of HIF1alpha in human SK-RC-28 cells assessed as reduction in VEGFA expression at 21 uM after 48 hrs by RT-PCR analysis; assay type: cell-based
786-0 [30] = assay: Downregulation of HIF1alpha mRNA expression in human 786-0 cells at 21 uM after 48 hrs by RT-PCR analysis; assay type: functional, cell-based
[31] = target: T1, Endothelial PAS domain-containing protein 1; assay: Inhibition of HIF2alpha in human RCC4 cells coexpressing HIF1alpha assessed as reduction in CCND1 mRNA expression at 21 uM after 48 hrs by RT-PCR analysis; assay type: cell-based
total protein expression = assay: Inhibition of total protein expression in serum deprived human 786-0 cells at 20 uM after 48 hrs relative to control; assay type: cell-based; settings: 786-0 cells
[32] = Downregulation of HIF1alpha mRNA expression in human RCC4 cells at 21 uM after 48 hrs by RT-PCR analysis; assay type: functional, cell-based
[33] = Downregulation of CCND1 mRNA expression in human SK-RC-28 cells at 21 uM after 48 hrs by RT-PCR analysis; assay type: functional, cell-based
[34] = Downregulation of HIF1alpha mRNA expression in human SK-RC-28 cells at 21 uM after 48 hrs by RT-PCR analysis; assay type: functional, cell-based
786-0 [35] = assay: Inhibition of HIF-mediated VEGFA protein expression in serum deprived human 786-0 cells at 21 uM after 48 hrs relative to control; assay type: cell-based
[36] = target: T1, Endothelial PAS domain-containing protein 1; assay: Inhibition of HIF2alpha in human 786-0 cells assessed as reduction in CCND1 mRNA expression at 21 uM after 48 hrs by RT-PCR analysis; assay type: cell-based
[37] = target: T1, Endothelial PAS domain-containing protein 1; assay: Inhibition of HIF2alpha in human 786-0 cells assessed as reduction in GLUT1 mRNA expression at 21 uM after 48 hrs by RT-PCR analysis; assay type: cell-based
[38] = Downregulation of TGFalpha mRNA expression in human SK-RC-28 cells at 21 uM after 48 hrs by RT-PCR analysis; assay type: functional, cell-based
786-0 [39] = assay: Downregulation of carbonic anhydrase 9 expression in human 786-0 cells at 21 uM after 48 hrs by RT-PCR analysis; assay type: functional, cell-based
[40] = target: T2, Hypoxia inducible factors; HIF-1-alpha, HIF-2-alpha (Homo sapiens); assay: Inhibition of HIF1alpha/2alpha in human RCC4 cells assessed as reduction in VEGFA mRNA expression at 21 uM after 48 hrs by RT-PCR analysis; assay type: cell-based
786-0 [41] = assay: Downregulation of HIF2alpha mRNA expression in human 786-0 cells at 21 uM after 48 hrs by RT-PCR analysis; assay type: functional, cell-based
[42] = target: T1, Endothelial PAS domain-containing protein 1; assay: Inhibition of HIF2alpha in human 786-0 cells assessed as reduction in TGFalpha mRNA expression at 21 uM after 48 hrs by RT-PCR analysis; assay type: cell-based
[43] = target: T1, Endothelial PAS domain-containing protein 1; assay: Inhibition of HIF2alpha in human RCC4 cells coexpressing HIF1alpha assessed as reduction in GLUT1 mRNA expression at 21 uM after 48 hrs by RT-PCR analysis; assay type: cell-based
786-0 [44] = assay: Downregulation of actin mRNA expression in human […] at 21 uM after 48 hrs by RT-PCr analysis; assay type: ADME, cell-based; settings: 786-0, 48 h
[45] = Downregulation of HIF2alpha mRNA expression in human SK-RC-28 cells at 21 uM after 48 hrs by RT-PCR analysis; assay type: functional, cell-based
[46] = target: T1, Endothelial PAS domain-containing protein 1; assay: Inhibition of HIF2alpha in human RCC4 cells coexpressing HIF1alpha assessed as reduction in TGFalpha mRNA expression at 21 uM after 48 hrs by RT-PCR analysis; assay type: cell-based
[47] = Downregulation of actin mRNA expression in human RCC4 cells expressing HIF1alpha and HIF2alpha at 21 uM after 48 hrs by RT-PCr analysis; assay type: ADME, cell-based; settings: rcc4, 48 h
[48] = Downregulation of GLUT1 mRNA expression in human SK-RC-28 cells at 21 uM after 48 hrs by RT-PCR analysis; assay type: functional, cell-based
[49] = Downregulation of actin mRNA expression in human SK-RC-28 cells expressing HIF2alpha at 21 uM after 48 hrs by RT-PCr analysis; assay type: ADME, cell-based
[50] = target: Hypoxia-inducible factor 1-alpha (Homo sapiens) (UniProt Q16665); assay: Inhibition of HIF1alpha in human SK-RC-28 cells assessed as reduction in carbonic anhydrase 9 expression at 21 uM after 48 hrs by RT-PCR analysis; assay type: cell-based
[51] = target: T1, Endothelial PAS domain-containing protein 1; assay: Inhibition of HIF2alpha in human 786-0 cells assessed as reduction in VEGFA expression at 21 uM after 48 hrs by RT-PCR analysis; assay type: cell-based
[52] = target: Hypoxia-inducible factor 1-alpha (Homo sapiens) (UniProt Q16665); assay: Inhibition of HIF1alpha in human RCC4 cells coexpressing HIF2alpha assessed as decrease in carbonic anhydrase 9 mRNA expression at 21 uM after 48 hrs by RT-PCR analysis; assay type: cell-based

With `C/C=C(/C)C(=O)OCC1C2=C(C=CN1C=O)C(=O)C(C)=C(OC)C2=O` (mixture of isomers) the Activity [1] was “inactive”, the inhibition [2] was “Active” and the inhibition [3] was “inactive”. For the same molecule, the inhibition [4] was “Active”, the IC50 [5] was 26.3 µM and the inhibition [6] was “Active”. The Activity (786-0 [7]) was “Toxic”, the inhibition [8] was “Active” and the Activity [9] was “inactive”. For the same molecule, the inhibition [10] was “inactive”, the inhibition [11] was “Active” and the inhibition [12] was “Active”. For the same molecule, the Activity (786-0 [13]) was “Active”, the Activity [14] was “inactive” and the inhibition [15] was “Active”. The Activity (786-0 [16]) was “Toxic”, the Activity [17] was “inactive” and the inhibition [18] was “Active”. The IC50 [19] was 38.7 µM, the Activity [20] was “Active” and the Activity [21] was “inactive”. The IC50 (786-0 [22]) was 33.8 µM, the Activity (786-0 [23]) was “Active” and the Activity [24] was “Active”. The EC50 [25] was 2.7 µM, the Activity (786-0 [26]) was “Active” and the inhibition [27] was “Active”.

With `C1=C/[C@H]2[C@@H]3CCCC[C@H]3C[C@@H]2NCCCN[C@@H]2C[C@@H]3CCCC[C@H]3[C@@H]2/C=C/1` [HALICLONADIAMINE] the Activity [28] was “Active”, the inhibition [29] was “Active” and the Activity (786-0 [30]) was “Active”. For the same molecule, the inhibition [31] was “Active”, the inhibition at 48 h, 20 µM (total protein expression) was 20% and the Activity [32] was “Active”. For the same molecule, the Activity [33] was “Active”, the Activity [34] was “Active” and the inhibition (786-0 [35]) was 50%. For the same molecule, the inhibition [36] was “Active”, the inhibition [37] was “Active” and the Activity [38] was “Active”. For the same molecule, the Activity (786-0 [39]) was “Active”, the IC50 [19] was 16.1 µM and the inhibition [40] was “Active”. For the same molecule, the Activity (786-0 [41]) was “Active”, the IC50 (786-0 [22]) was 15.1 µM and the inhibition [42] was “Active”. For the same molecule, the inhibition [43] was “Active”, the Activity (786-0 [44]) was “Toxic” and the Activity [45] was “Active”. The inhibition [46] was “Active”, the Activity [47] was “Toxic” and the EC50 [25] was 14.8 µM. For the same molecule, the Activity [48] was “Active”, the Activity [49] was “Toxic” and the inhibition [50] was “Active”. For the same molecule, the inhibition [51] was “Active” and the inhibition [52] was “Active”.
